Test system: organoids from classical versus basal-like tumors
Assay: IFNγ treatment of organoids from classical and basal-like tumors
Format: cell-based, human
From the text: FIG. 37—Micrographs and graph showing results of IFNγ treatment in organoids from classical and basal-like tumors.
Applicants next asked whether organoids from classical versus basal-like tumors respond differently to addition of IFNγ.

Question: “IFNγ: cytokine (type II interferon) added to organoid cultures” was tested. Which “effect on expression state in organoids” value (classical expression state, patient-derived PDAC organoids (FIG. 37)) did it give?
Answer: select against the classical expression state

Question: What about the “return to a basal state” value (patient-derived PDAC organoids (FIG. 37)) of the same substance?
Answer: may not be sufficient to drive complete return to a basal state

Question: And the “growth inhibition by IFNγ” value (patient-derived PDAC organoids, classical versus basal-like tumors, preliminary results (FIG. 37))?
Answer: more pronounced in organoids derived from classical tumors
